Experimental data taken from ChEMBL document CHEMBL4364241, “Developments in the anticancer activity of structurally modified curcumin: An up-to-date review” (Eur J Med Chem, 2019).

Tests used:
GES1 = assay: Cytotoxicity against human GES-1 cells; format: functional, cell-based
MGC-803 [1] = assay: Cytotoxicity against human MGC803 cells; format: functional, cell-based
SGC-7901 [2] = assay: Cytotoxicity against human SGC7901 cells; format: functional, cell-based
BGC-823 [3] = assay: Cytotoxicity against human BGC823 cells; format: functional, cell-based
SK-OV-3 [4] = assay: Cytotoxicity against human SKOV3 Cells after 24 hrs by MTT assay; format: functional, cell-based; details: SK-OV-3, 24 h
PC-3 [5] = assay: Cytotoxicity against human PC3 cells; format: functional, cell-based
Bcap37 = assay: Cytotoxicity against human Bcap37 cells; format: functional, cell-based
EA.hy 926 = assay: Cytotoxicity against human EAhy926 Cells after 72 hrs by MTT assay; format: functional, cell-based; details: EA.hy 926, 72 h
CT26 = assay: Cytotoxicity against mouse CT26 cells; format: functional, cell-based
HeLa [6] = assay: Cytotoxicity against human HeLa Cells; format: functional, cell-based
HepG2 [7] = assay: Cytotoxicity against human HepG2 Cells after 72 hrs by MTT assay; format: functional, cell-based; details: HepG2, 72 h
MCF7 [8] = assay: Cytotoxicity against human MCF7 Cells after 48 hrs by MTT assay; format: functional, cell-based; details: MCF7, 48 h
[9] = Cytotoxicity against mitoxantrone resistant […] cells expressing BCRP after 15 mins by fluorescence assay; format: functional, cell-based; details: Canis lupus familiaris, MDCK2, 0.25 h
[10] = Anticancer activity against human LX2 cells after 72 hrs by MTT assay; format: functional, cell-based; details: LX-2, 72 h
HSC-2 = assay: Cytotoxicity against human HSC2 cells; format: functional, cell-based
U-251 = assay: Cytotoxicity against human U251MG cells after 48 hrs by MTS assay; format: functional, cell-based; details: U-251, 48 h
MCF7 [11] = assay: Cytotoxicity against human MCF7 cells; format: functional, cell-based
MCF7 [12] = assay: Induction of apoptosis in human MCF7 cells; format: functional, cell-based
PC-3 [13] = assay: Anticancer activity against human PC3 cells; format: functional, cell-based
HepG2 [14] = assay: Cytotoxicity against human HepG2 Cells after 48 hrs by MTT assay; format: functional, cell-based; details: HepG2, 48 h
HL-60 = assay: Cytotoxicity against human HL60 cells; format: functional, cell-based
[15] = Cytotoxicity against human GBM1 Cells 48 hrs by MTS assay; format: functional; details: GBM1, 48 h
HCT-116 [16] = assay: Cytotoxicity against human HCT116 Cells; format: functional, cell-based
RWPE-1 = assay: Cytotoxicity against human RWPE1 cells; format: functional, cell-based
[17] = Cytotoxicity against human GBM6 Cells 48 hrs by MTS assay; format: functional; details: GBM6, 48 h
HSC-4 = assay: Cytotoxicity against human HSC4 cells; format: functional, cell-based
MCF7 [18] = assay: Cytotoxicity against human MCF7 Cells after 48 hrs by MTS assay; format: functional, cell-based; details: MCF7, 48 h
[19] = Cytotoxicity against human GBM4 Cells 48 hrs by MTS assay; format: functional
L02 [20] = assay: Cytotoxicity against human HL-7702 cells; format: functional, cell-based
[21] = Cytotoxicity against human GBM2 Cells 48 hrs by MTS assay; format: functional; details: GBM2, 48 h
[22] = Cytotoxicity against human CCD-1059SK Cells after 48 hrs by MTS assay; format: functional
SMMC-7721 = assay: Anticancer activity against human SMMC7721 cells after 72 hrs by MTT assay; format: functional, cell-based; details: SMMC-7721, 72 h
HepG2 [23] = assay: Cytotoxicity against human HepG2 Cells; format: functional, cell-based
U373 MG = assay: Cytotoxicity against human U373MG Cells 48 hrs by MTS assay; format: functional, cell-based, U-373MG ATCC
MDA-MB-231 [24] = assay: Cytotoxicity against human MDA-MB-231 cells; format: functional, cell-based
SGC-7901 [25] = assay: Antiproliferative activity against human SGC7901 cells after 24 hrs by MTT assay; format: functional, cell-based; details: SGC-7901, 24 h
HT-29 [26] = assay: Cytotoxicity against human HT-29 Cells after 72 hrs by MTT assay; format: functional, cell-based; details: HT-29, 72 h
CHO-K1 = assay: Cytotoxicity against […] Cells after 72 hrs by MTT assay; format: functional, cell-based; details: Cricetulus griseus, CHO-K1, 72 h
SW-620 = assay: Cytotoxicity against human SW620 Cells; format: functional, cell-based
BXPC-3 = assay: Cytotoxicity against human BxPC3 cells; format: functional, cell-based
U-87 MG = assay: Cytotoxicity against human U87MG Cells 48 hrs by MTS assay; format: functional, cell-based, U-87MG ATCC
[27] = Cytotoxicity against human LX2 Cells after 48 hrs by MTT assay; format: functional; details: LX-2, 48 h
HEp-2 = assay: Cytotoxicity against human Hep2 Cells; format: functional, cell-based
MGC-803 [28] = assay: Antiproliferative activity against human MGC803 cells after 24 hrs by MTT assay; format: functional, cell-based; details: MGC-803, 24 h
AGS [29] = assay: Cytotoxicity against human AGS Cells by MTT assay; format: functional, cell-based
HSC-3 = assay: Cytotoxicity against human HSC3 cells; format: functional, cell-based
HCT-116 [30] = assay: Growth inhibition of human HCT116 cells relative to control; format: functional
NIH3T3 = assay: Cytotoxicity against mouse 3T3 Cells after 48 hrs by MTT assay; format: functional, cell-based; details: NIH3T3, 48 h
A549 [31] = assay: Cytotoxicity against human A549 Cells by MTT assay; format: functional, cell-based
K562 [32] = assay: Cytotoxicity against human K562 Cells after 24 to 48 hrs by MTT assay; format: functional, cell-based
[33] = Cytotoxicity against human GBM3 Cells 48 hrs by MTS assay; format: functional; details: GBM3, 48 h
A549 [34] = assay: Cytotoxicity against human A549 Cells after 24 to 48 hrs by MTT assay; format: functional, cell-based
HT-29 [35] = assay: Cytotoxicity against human HT-29 Cells; format: functional, cell-based
DU-145 = assay: Anticancer activity against human DU145 cells; format: functional, cell-based
HeLa [36] = assay: Anticancer activity against human HeLa cells; format: functional, cell-based
A549 [37] = assay: Cytotoxicity against human A549 Cells after 24 hrs by MTT assay; format: functional, cell-based; details: A549, 24 h
[38] = Cytotoxicity against human GBM5 Cells 48 hrs by MTS assay; format: functional
KBM5 = assay: Growth inhibition of human KBM5 cells relative to control; format: functional
NCI-H1299 = assay: Cytotoxicity against human H1299 cells; format: functional, cell-based
Caco-2 = assay: Cytotoxicity against human Caco2 Cells after 72 hrs by MTT assay; format: functional, cell-based; details: Caco-2, 72 h
SK-OV-3 [39] = assay: Cytotoxicity against human SKOV3 Cells after 48 hrs by Cell Titer Blue assay; format: functional, cell-based; details: SK-OV-3, 48 h
BGC-823 [40] = assay: Antiproliferative activity against human BGC823 cells after 24 hrs by MTT assay; format: functional, cell-based; details: BGC-823, 24 h
MDA-MB-231 [41] = assay: Anticancer activity against human MDA-MB-231 cells after 72 hrs by MTT assay; format: functional, cell-based; details: MDA-MB-231, 72 h
SW480 = assay: Cytotoxicity against human SW480 Cells after 24 to 48 hrs by MTT assay; format: functional, cell-based
AGS [42] = assay: Cytotoxicity against human AGS Cells; format: functional, cell-based
HepG2 [43] = assay: Cytotoxicity against human HepG2 Cells by MTT/Trypan Blue Exclusion Assay; format: functional, cell-based
L02 [44] = assay: Cytotoxicity against human LO2 Cells; format: functional, cell-based
K562 [45] = assay: Antiproliferative activity against human K562 Cells; format: functional, cell-based
THP-1 = assay: Cytotoxicity against human THP1 Cells; format: functional, cell-based

COc1ccc(OC)c(/C=C2\CC/C(=C\c3ccc(O)c(OC)c3)C2=O)c1
IC50 (GES1): 27.3 µM
IC50 (MGC-803 [1]): 13.3 µM
IC50 (SGC-7901 [2]): 3.9 µM
IC50 (BGC-823 [3]): 4.7 µM

COc1cc(/C=C/C2=NN(c3nc(/N=C4/CC[C@H]5[C@@H]6CC[C@H]7C[C@@H](OC(C)=O)CC[C@]7(C)[C@H]6CC[C@]45C)cc(=O)[nH]3)C(/C=C/c3cc(OC)cc(OC)c3)C2)cc(OC)c1 (some centres not stated)
IC50 (SK-OV-3 [4]): 2.5 µM

Cc1ccc2ncnc(Oc3ccccc3/C=C/C(=O)/C=C/c3c(Cl)cccc3Cl)c2c1
IC50 (MGC-803 [1]): 0.85 µM
IC50 (PC-3 [5]): 1.37 µM
IC50 (Bcap37): 4.98 µM

COc1cc(/C=C/C(=O)CC(=O)/C=C/c2ccc(O)c(OC)c2)ccc1O [CURCUMIN]
IC50 (EA.hy 926): 20 µM
IC50 (CT26): > 20 µM
IC50 (HeLa [6]): 14 to 22.2 µM
IC50 (HepG2 [7]): 20.3 to 24.9 µM
IC50 (GES1): 29.1 µM
IC50 (MCF7 [8]): 9.28 µM
IC50 [9]: 32 µM
IC50 [10]: 14 µM
IC50 (HSC-2): 7.8 µM
IC50 (U-251): 15.3 µM
IC50 (MCF7 [11]): 22.5 µM
IC50 (MCF7 [12]): 17.1 µM
IC50 (PC-3 [13]): 20.9 µM
IC50 (HepG2 [14]): 9.44 µM
IC50 (MGC-803 [1]): 21.2 µM
IC50 (HL-60): 6.3 µM
IC50 [15]: 39.6 µM
IC50 (HCT-116 [16]): 5.51 to 20 µM
IC50 (RWPE-1): 15.6 µM
IC50 [17]: > 50 µM
IC50 (HSC-4): 7.1 µM
IC50 (MCF7 [18]): 68.2 µM
IC50 [19]: > 50 µM
IC50 (L02 [20]): 32.3 µM
IC50 [21]: > 50 µM
IC50 [22]: 133 µM
IC50 (SGC-7901 [2]): 22.5 µM
IC50 (SMMC-7721): 12.6 µM
IC50 (HepG2 [23]): 36.8 µM
IC50 (U373 MG): > 50 µM
IC50 (MDA-MB-231 [24]): 26.5 µM
IC50 (SGC-7901 [25]): > 20 µM
IC50 (HT-29 [26]): 23.4 µM
IC50 (CHO-K1): 21.3 µM
IC50 (SW-620): > 50 µM
IC50 (BXPC-3): 18.2 µM
IC50 (U-87 MG): 7.15 µM
IC50 [27]: 9.14 µM
IC50 (HEp-2): 21.4 µM
IC50 (MGC-803 [28]): > 20 µM
IC50 (AGS [29]): 20.8 µM
IC50 (HSC-3): 11 µM
growth inhibition (GI) (HCT-116 [30]): 46.87%
IC50 (NIH3T3): 9.51 µM
IC50 (A549 [31]): 25.3 µM
IC50 (K562 [32]): 36 to 38 µM
IC50 (BGC-823 [3]): 17.5 µM
IC50 [33]: > 50 µM
IC50 (PC-3 [5]): 20 µM
IC50 (A549 [34]): 28 to 30 µM
IC50 (HT-29 [35]): 18.7 to 66.9 µM
IC50 (DU-145): 31.7 µM
IC50 (HeLa [36]): 4.33 µM
IC50 (A549 [37]): 52.3 µM
IC50 [38]: > 50 µM
growth inhibition (GI) (KBM5): 46%
IC50 (NCI-H1299): 18.9 µM
IC50 (Caco-2): 28 µM
IC50 (SK-OV-3 [39]): 6.7 µM
IC50 (BGC-823 [40]): > 20 µM
IC50 (MDA-MB-231 [41]): 11.5 µM
IC50 (SW480): 15 to 17 µM
IC50 (AGS [42]): 9.77 µM

COc1cccc2c1C(=O)c1c(O)c3c(c(O)c1C2=O)C[C@@](O)(C(=O)CO)C[C@@H]3O[C@H]1C[C@H](N)[C@H](O)[C@H](C)O1 [DOXORUBICIN]
IC50 (HeLa [6]): 2.02 µM
IC50 (HepG2 [43]): 14.7 µM
IC50 (HepG2 [23]): 0.57 µM
IC50 (L02 [44]): 6.93 µM
IC50 (K562 [45]): 1.42 µM
IC50 (THP-1): 0.3 µM
